Our source for the IC50 values is patent publication US11945821B1, “5-substituted aminopyrazino[2′,1′:2,3]imidazo[4,5-C][2,7]naphthyridine compounds as CK2 inhibitors” (KING FAISAL UNIVERSITY, priority 2023, dated 2024).

One assay has as its system MCF7 (breast). Description: In vitro cytotoxic activity (MTT) assay, MCF7. The conditions noted are these: Homo sapiens; MCF7 cells, exposed for 96 hours; read-out: IC50, 50% inhibition of cell proliferation, MCF7 (breast). The format is cell-based. Here is the method: (§1) Compounds 1-12 were screened for their in vitro cytotoxic activity utilizing a 3-(4,5-dimethyl-thiazol-2-yl)-2,5-diphenyltetrazolium bromide (MTT) assay against selected cancer human cell lines consisting of PC3 (prostate), HCT116 (colon), A375 (melanoma), H1299 (lung), MIAPaCa-2 (pancreas), HL60 (leukemia), MCF7 (breast), MDA-MB-231 (breast) (T. Mosmann, J. Immunol. Meth., 1983, 65, 55-63). The cells were cultured at 37° C. in RMPI1640 medium supplemented with 10% fetal bovine serum, 50 IU/mL penicillin, and 50 μg/mL streptomycin in a 5% CO2 incubator. All cells were sub-cultured 3 times/week by trypsinisation. Viable cells were seeded and allowed to adhere for 12 h before a test drug was added in 96-well plates at an initial density of 1.0×10^5 cells/mL. Tumour cell lines were separately exposed to various concentrations of the tested compounds followed by incubation at a temperature of 37° C. during 96 h inside a medium of fresh RMPI 1640. Cells were subsequently incubated at 37° C. using MTT at 0.5 mg/mL during 4 h. After removal of supernatant, formazan crystals were dissolved in isopropanol and the optical density was measured at 570 nm. CX-4945 was used as a positive control.

For assay [1], the target named is T1, recombinant human CK2 (RRββ-holoenzyme) (Homo sapiens, UniProt P68400).
T1 construct: purchased Millipore
Description: CK2 Kinase Assay (33P-ATP, filter plate). Format: biochemical. The conditions noted are these: final ATP 15 μM, 10 min at 30° C., eight concentrations; read-out: protein kinase CK2 IC50. The procedure:
CK2 Kinase Assay was conducted using the protocol as described in Pierre F. et al; J. Med. Chem. 2011, 54, 635-654. The tested compounds in aqueous solution were added at a volume of 10 μL to a reaction mixture comprising 10 μL of assay dilution buffer (ADB; 20 mM MOPS, pH 7.2, 25 mM β-glycerol phosphate, 5 mM EGTA, 1 mM sodium orthovanadate, and 1 mM dithiothreitol), 10 μL of substrate peptide (RRRDDDSDDD, dissolved in ADB at a concentration of 1 mM), 10 μL of recombinant human CK2 (RRββ-holoenzyme, 25 ng dissolved in ADB; Millipore). Reactions were initiated by the addition of 10 μL of ATP solution (90% 75 mMMgCl2, 75 μM ATP (final ATP concentration:15 μM) dissolved in ADB; 10% [γ-33P] ATP (stock 1 mCi/100 μL; 3000 Ci/mmol (Perkin-Elmer) and maintained for 10 min at 30° C. The reactions were quenched with 100 μL of 0.75% phosphoric acid and then transferred to and filtered through a phosphor cellulose filter plate (Millipore). After washing each well five times with 0.75% phosphoric acid, the plate was dried under vacuum for 5 min and, following the addition of 15 μL of scintillation fluid to each well, the residual radioactivity was measured using a Wallac luminescence counter. The IC50 values were derived from eight concentrations of test inhibitors.

In the next assay the test system is A375 (melanoma). The assay is described as follows: In vitro cytotoxic activity (MTT) assay, A375. Format: cell-based. The conditions noted are these: Homo sapiens, A-375; A375 cells, exposed for 96 hours; read-out: IC50, 50% inhibition of cell proliferation, A375 (melanoma). Here is the method: as §1
For a further assay, the system named is MIAPaCa-2 (pancreas). Description: In vitro cytotoxic activity (MTT) assay, MIAPaCa-2. The note with it: Homo sapiens, MIA PaCa-2; MIAPaCa-2 cells, exposed for 96 hours; read-out: IC50, 50% inhibition of cell proliferation, MIAPaCa-2 (pancreas). The format is cell-based. The procedure: as §1
The next assay deals with H1299 (lung). The assay is described as follows: In vitro cytotoxic activity (MTT) assay, H1299. The note with it: Homo sapiens, NCI-H1299; H1299 cells, exposed for 96 hours; read-out: IC50, 50% inhibition of cell proliferation, H1299 (lung). The format is cell-based. The procedure:
as §1

The subject of another assay is HL60 (leukemia). The assay is described as follows: In vitro cytotoxic activity (MTT) assay, HL60. The note with it: Homo sapiens, HL-60; HL60 cells, exposed for 96 hours; read-out: IC50, 50% inhibition of cell proliferation, HL60 (leukemia). Format: cell-based. The procedure:
as §1

The next assay deals with PC3 (prostate). The assay is described as follows: In vitro cytotoxic activity (MTT) assay, PC3. The format is cell-based. The note with it: Homo sapiens, PC-3; PC3 cells, exposed for 96 hours; read-out: IC50, 50% inhibition of cell proliferation, PC3 (prostate). The procedure: as §1
The subject of a further assay is HCT116 (colon). The assay is described as follows: In vitro cytotoxic activity (MTT) assay, HCT116. The conditions noted are these: Homo sapiens, HCT-116; HCT116 cells, exposed for 96 hours; read-out: IC50, 50% inhibition of cell proliferation, HCT116 (colon). The format is cell-based. The procedure: as §1
The next assay relates to MDA-MB-231 (breast). The assay is described as follows: In vitro cytotoxic activity (MTT) assay, MDA-MB-231. The format is cell-based. The conditions noted are these: Homo sapiens; MDA-MB-231 cells, exposed for 96 hours; read-out: IC50, 50% inhibition of cell proliferation, MDA-MB-231 (breast). The procedure:
as §1

T1 sequence (P68400 whole entry): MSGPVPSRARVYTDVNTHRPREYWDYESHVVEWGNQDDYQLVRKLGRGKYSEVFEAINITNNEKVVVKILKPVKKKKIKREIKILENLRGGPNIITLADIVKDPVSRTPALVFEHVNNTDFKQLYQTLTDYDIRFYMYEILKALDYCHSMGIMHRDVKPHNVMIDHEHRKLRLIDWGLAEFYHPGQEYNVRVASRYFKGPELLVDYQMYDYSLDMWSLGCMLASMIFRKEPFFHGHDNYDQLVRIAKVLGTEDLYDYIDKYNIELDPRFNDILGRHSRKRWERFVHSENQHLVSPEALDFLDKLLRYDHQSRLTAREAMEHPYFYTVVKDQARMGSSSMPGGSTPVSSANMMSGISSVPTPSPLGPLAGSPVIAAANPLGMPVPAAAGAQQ
T1 sequence (P67870 whole entry partner): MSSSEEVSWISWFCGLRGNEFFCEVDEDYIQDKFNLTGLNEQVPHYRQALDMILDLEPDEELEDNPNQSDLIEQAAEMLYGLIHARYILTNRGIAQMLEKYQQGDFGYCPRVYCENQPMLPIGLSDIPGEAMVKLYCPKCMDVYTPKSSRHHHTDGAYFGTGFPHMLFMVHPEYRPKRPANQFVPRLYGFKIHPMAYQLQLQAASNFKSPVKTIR

Regarding `Clc1cccc(Nc2nc3c(nc4cnccn43)c3ccncc23)c1` [Example 1, N-(3-chlorophenyl)pyrazino[2′,1′:2.3]imidazo[4,5-c][2.7]naphthyridin-5-amine], the IC50 was 4800 nM with MCF7 (breast); 22 nM in assay [1]; 3300 nM in the assay with A375 (melanoma); 1200 nM with MIAPaCa-2 (pancreas); 1900 nM in the assay on H1299 (lung); 3900 nM in the assay with HL60 (leukemia). The IC50 in the assay on PC3 (prostate) was 1800 nM; with HCT116 (colon), 2100 nM; in the assay with MDA-MB-231 (breast), 4100 nM.
